This passage reports IC50 results from publication PMC7825493, “Characterization of LDD-2633 as a Novel RET Kinase Inhibitor with Anti-Tumor Effects in Thyroid Cancer” (Pharmaceuticals, 2021).

The target in this assay is RET kinase (Homo sapiens, UniProt P07949). Put plainly: HTRF KinEASE-TK (TR-FRET) kinase assay with recombinant RET, […] ATP. In kind it is biochemical. (In TR-FRET formats the signal depends on donor and acceptor labels being close together.)

Structures can show the parent of a compound that is named as a salt.

Chain of RET kinase (P07949 29-1114): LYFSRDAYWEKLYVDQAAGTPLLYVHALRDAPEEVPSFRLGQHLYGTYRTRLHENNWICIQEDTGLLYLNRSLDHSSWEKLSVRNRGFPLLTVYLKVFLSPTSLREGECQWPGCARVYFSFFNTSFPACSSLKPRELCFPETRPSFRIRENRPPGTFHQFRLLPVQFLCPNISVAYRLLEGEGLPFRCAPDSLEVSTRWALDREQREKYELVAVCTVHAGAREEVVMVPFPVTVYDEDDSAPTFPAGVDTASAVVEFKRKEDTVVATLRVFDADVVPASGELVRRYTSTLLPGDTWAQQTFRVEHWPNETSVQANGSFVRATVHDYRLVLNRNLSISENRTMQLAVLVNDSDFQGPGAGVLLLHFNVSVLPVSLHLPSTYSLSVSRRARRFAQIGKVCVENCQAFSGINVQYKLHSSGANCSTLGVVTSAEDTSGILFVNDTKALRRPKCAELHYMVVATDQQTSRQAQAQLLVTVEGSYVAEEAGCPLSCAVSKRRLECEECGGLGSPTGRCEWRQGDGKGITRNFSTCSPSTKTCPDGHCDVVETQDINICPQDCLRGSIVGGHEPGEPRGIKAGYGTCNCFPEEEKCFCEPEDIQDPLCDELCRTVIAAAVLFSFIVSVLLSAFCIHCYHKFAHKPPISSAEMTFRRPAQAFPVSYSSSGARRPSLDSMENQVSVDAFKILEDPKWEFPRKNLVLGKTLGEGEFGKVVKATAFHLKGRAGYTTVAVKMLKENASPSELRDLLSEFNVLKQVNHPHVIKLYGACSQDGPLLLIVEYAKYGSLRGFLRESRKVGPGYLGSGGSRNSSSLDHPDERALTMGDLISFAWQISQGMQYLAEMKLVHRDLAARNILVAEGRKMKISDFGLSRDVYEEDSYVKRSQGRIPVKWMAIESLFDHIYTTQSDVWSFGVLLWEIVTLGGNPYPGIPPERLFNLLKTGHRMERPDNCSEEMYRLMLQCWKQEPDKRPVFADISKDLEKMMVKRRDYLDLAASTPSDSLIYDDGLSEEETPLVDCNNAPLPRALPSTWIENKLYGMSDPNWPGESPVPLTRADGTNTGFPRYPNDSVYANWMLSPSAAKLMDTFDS

With `O=C1Nc2ccccc2/C1=C1/Nc2ccccc2/C1=N\OCCN1CCNCC1` [LDD-2633, (2Z,3E)-3-((2-(piperazin-1-yl)ethoxy)imino)-[2,3′-biindolinylidene]-2′-one hydrochloride], the IC50 was 4.42 nM.

Broadly, the IC50 is the point on the concentration scale where inhibition reaches its midpoint.
